Data: patent US7662776B2, “Treatment of tumors using short peptides from human chorionic gonadotropin (HCG)” (Biotempt B.V., priority 2005, dated 2010)
Entries after “also recorded” stand apart in the source; their conditions may differ. Peptide text beside a SMILES is read from it.

Columns and labels:
Type in all cases: in vivo, Mice (C57B16)
[1] = tested on: Lewis Lung Carcinoma (LLC); assay: Tumor response in mice bearing LLC tumor during and after treatment with small peptides (Example II); conditions: for tumor growth curves compared with thalidomide: FIG. 1; for tumor growth curves compared with thalidomide / effect on tumor growth: result in words; for tumor volume day 21: average tumor volume on day 21, s.c. LLC, i.p. injection Mon/Wed/Fri; for tumor volume day 21 / mice showing a tumor response: 6 mice per group; for tumor control: mice with complete tumor control for 56 days / mice in group; for Response rate CR: number of mice with complete response; for Response rate CR / Response rate NC / Response rate PR / Response rate PD: of 6; for Response rate NC: number of mice with no change (stable disease); for mice showing a tumor response: response = maximally a growth of 25% within seven days; for effect on tumor growth: i.p. peptide, LLC tumor; for Response rate PR: number of mice with partial remission; for Response rate PD: number of mice with progressive disease
Method: Animals and tumor model: Mice (C57B16) are transplanted with the syngeneic Lewis Lung Carcinoma (LLC) subcutaneously.
Treatment modalities: mice are treated with small peptides or control substances beginning on the day of transplantation by i.p. injection. Mice are injected on Monday, Wednesday and Friday, until end of experiment. Experiment ends are based on: tumor size >20 mm, suffering of the animal, weight loss over 20%, ulcerations etc. Otherwise the experiment is terminated eight weeks after start.
Tumor diameter is measured in two directions by caliper measurements and tumor volume (V) is calculated using the formula V=0.4(A^2×B) (where B represents the largest diameter and A the diameter perpendicular to B). The classification of tumor response is: progressive disease (PD), increase of tumor volume (>50%) within seven days (between day 3 and day 10 after begin of treatment); stable disease, tumor volume equal to volume at day 3 in a range of −25% and +25%; partial remission (R), tumor volume −25% to −90%, and complete response CR, (no) measurable tumor at 56 days after start of treatment.
Tumor growth evaluation is terminated when a tumor diameter of 20 mm is reached.
Mice were treated with i.p. injections of peptides 24 hours after implantation of LLC tumor. In all mice receiving PBS tumor developed which reached on average a tumor volume of 1600 mm^3 in 21 days. Approximately tumor diameter was at that time point 16 mm. Thalidomide was used as a positive control.

[2] = tested on: Lewis Lung Carcinoma (LLC); assay: Escalating doses of peptide LQGV in Lewis Lung Carcinoma-bearing mice (Example III); conditions: for PD: number of mice with progressive disease (outgrowth); for TR: number of mice with tumor response (growth delay till day 20); for RR: tumor response rate
Method: FIG. 3 Tumor volume of Lewis Lung Carcinoma-bearing C57B16 mice treated with escalating doses of peptide LQGV (SEQ ID NO:1). Doses of 1.7, 5, 17, 50 and 170 mg/kg were tested.
Animals and tumor model. Mice (C57B16) are transplanted with the syngeneic Lewis Lung Carcinoma (LLC) subcutaneously. Treatment is stared 24 hours after implantation. The number of animals is eight per group to increase the power of this study. As we are starting the treatment when no tumor is palpable the change of error is larger compared to a study with established tumors. Treatment modalities: mice are treated with small peptides or sham control beginning one day after transplantation by i.p. injection. Mice will be injected on Monday, Wednesday and Friday, until end of experiment. Experiment ends based on criteria as tumor size >20 mm, suffering of the animal, weight loss over 20%, ulcerations. Otherwise the experiment will be terminated eight weeks after start.
Tumor diameter is measured in two directions by caliper measurements and tumor volume (V) is calculated using the formula V=0.4(A2×B) (where B represents the largest diameter and A the diameter perpendicular to B). The classification of tumor response is: progressive disease (PD), increase of tumor volume (>25%) within seven days; no change (NC), tumor volume equal to volume at start of treatment in a range of −25% and +25%; partial remission (PR), decrease of tumor volume between −25% and −90%; complete remission (CR), tumor volume less than 10% of initial volume. Tumor growth evaluation is terminated when a tumor diameter of 20 mm is reached.
Tumor volumes were analyzed using non-parametric testing for multiple groups (Kruskal Wallis) and pair wise comparison of the different groups using Mann Whitney.
Tumor response was evaluated slightly differently from proposed. As we start shortly after tumor induction, shrinkage of the tumor compared to before treatment cannot be made. […] So during the experimental time-frame outgrowth (progressive disease, PD) and tumor response (TR, growth delay till day 20) was evaluated. In Table 3 response rates are depicted.

[3] = Toxicity during escalating dose experiment: animal weight, blood markers, leukocyte count (Example III)
Method: FIG. 5. During the escalating dose experiment toxicity of LQGV (SEQ ID NO:1) was evaluated by evaluation of blood markers for kidney and liver function and leukocyte count.
FIG. 6. During the escalating dose experiment toxicity of LQGV (SEQ ID NO:1) was evaluated by monitoring of animal weight.
Assessment of side-effects. Side-effects are monitored on daily basis. a) Weight of the animals is monitored daily. b) Behavior of the animals is observed. c) Animals are checked for possible side effects such as diarrhea.
During the experiment toxicity of the administered peptides was evaluated by monitoring of animal weight (FIG. 6) and by evaluation of blood markers for kidney and liver function and leukocyte count (FIG. 5). […] It is important to compare not only between the groups but also within the groups between individual mice.

[4] = escalating dose experiment, FIG. 5

Molecule: LQG
- tumor growth curves compared with thalidomide [1]: comparable to Thalidomide; also recorded: comparable tumor growth curves
- tumor volume day 21 [1]: 620 mm^3
- tumor control [1]: 3/6
- Response rate CR [1]: 2
- Response rate NC [1]: 4
- mice showing a tumor response [1]: all animals
- effect on tumor growth [1]: tumor growth delay

Molecule: Ala Gln Gly Val (AQGV; Chemically synthesized antitumor peptide AQGV) [4-mer peptide, derivative of LQGV]
- tumor volume day 21 [1]: 1030 mm^3
- tumor control [1]: 2/6
- Response rate NC [1]: 1
- Response rate PR [1]: 2
- Response rate PD [1]: 3
- effect on tumor growth [1]: tumor growth delay

Molecule: CC(C)C[C@H](N)C(=O)N[C@@H](CCC(N)=O)C(=O)NCC(=O)N[C@H](C(=O)O)C(C)C [LQGV, Leu Gln Gly Val] (H-LQGV-OH)
- tumor growth curves compared with thalidomide [1]: comparable to Thalidomide; also recorded: comparable tumor growth curves
- tumor volume day 21 [1]: 270 mm^3
- tumor control [1]: 2/6
- Response rate CR [1]: 2
- Response rate NC [1]: 2
- Response rate PR [1]: 1
- Response rate PD [1]: 1
- mice showing a tumor response [1]: five out of six
- effect on tumor growth [1]: strong tumor growth delay
- PD ([2]; 1.7 mg/kg i.p.): 9
- TR ([2]; 1.7 mg/kg i.p.): 2
- RR ([2]; 1.7 mg/kg i.p.): 18%
- PD ([2]; 5 mg/kg i.p.): 4
- TR ([2]; 5 mg/kg i.p.): 7
- RR ([2]; 5 mg/kg i.p.): 64%
- PD ([2]; 17 mg/kg i.p.): 2
- TR ([2]; 17 mg/kg i.p.): 9
- RR ([2]; 17 mg/kg i.p.): 82%
- PD ([2]; 50 mg/kg i.p.): 4
- TR ([2]; 50 mg/kg i.p.): 7
- RR ([2]; 50 mg/kg i.p.): 64%
- effect on tumor growth ([2]; 50 mg/kg, result in words): strongly inhibited tumor growth
- PD ([2]; 170 mg/kg i.p.): 4
- TR ([2]; 170 mg/kg i.p.): 7
- RR ([2]; 170 mg/kg i.p.): 64%
- effect on tumor growth ([2]; dose of 5 mg/kg, result in words): a delay in tumor growth was observed
- delay in tumor growth relative to 5 mg/kg ([2]; higher dosages (above 5 mg/kg), result in words): more pronounced
- effect on animal weight ([3]; at all doses (1.7-170 mg/kg), FIG. 6): no effect on animal weight
- effect on leukocyte number [3, 4]: no effect on leukocyte number
- effect on liver and kidney parameters (blood markers) [3, 4]: did not affect the liver and kidney parameters

Molecule: O=C1CCC(N2C(=O)c3ccccc3C2=O)C(=O)N1 (stereo not drawn) [Thalidomide, reference compound]
- tumor volume day 21 [1]: 340 mm^3
- tumor control [1]: 3/6
- Response rate CR [1]: 2
- Response rate NC [1]: 3
- Response rate PR [1]: 1
- mice showing a tumor response [1]: all animals
- effect on tumor growth ([2]; positive control group, result in words): only some tumor growth delay

Molecule: VLPALP (Chemically synthesized antitumor peptide VLPALP) [6-mer peptide]
- tumor volume day 21 [1]: 880 mm^3
- tumor control [1]: 3/6
- Response rate CR [1]: 2
- Response rate NC [1]: 2
- Response rate PR [1]: 1
- Response rate PD [1]: 1
- mice showing a tumor response [1]: five out of six
- effect on tumor growth [1]: tumor growth delay

Molecule: LAG
- tumor volume day 21 [1]: 1550 mm^3
- tumor control [1]: 2/6
- Response rate CR [1]: 1
- Response rate PR [1]: 1
- Response rate PD [1]: 4

Molecule: Leu Ala Gly Val (LAGV; Chemically synthesized antitumor peptide LAGV) [4-mer peptide, derivative of LQGV]
- tumor volume day 21 [1]: 1600 mm^3
- tumor control [1]: 2/6
- Response rate CR [1]: 1
- Response rate NC [1]: 1
- Response rate PR [1]: 1
- Response rate PD [1]: 3
